Measurements published in patent publication US20210054028A1, “BACTERIAL SIDEROPHORE GRAMIBACTIN” (Leibniz-Institut für Naturstoff-Forschung und …, priority 2017, published 2021).
Entries after “also recorded” stand apart in the source; their conditions may differ. *1 amine or outer side, *2 acyl side, *3 side chain or, on linkers, in order; H or OH if unused. Where a SMILES comes first, the peptide text is derived from it. Bridges are numbered along the chain shown (N, C = ends). [ ]: non-standard residue; d: D form. The star is where a group is joined. dAsp(3R-OH) = N[C@@H](C(=O)O)[C@@H](O)C(=O)O; X1 = O=NN(O)CCC[C@@H](N[*:1])C(=O)[*:2]; d(aThr) = C[C@@H](O)[C@@H](N)C(=O)O; Octanoyl = CCCCCCCC(=O)*

What was measured:
[1] = test system: corn plants; experiment: Chlorophyll content determination in hydroponically grown corn plants; format: in vivo, Zea mays L. ssp. saccharata; conditions: 50 μM in nutrient solution; 21 d hydroponic growth; 3rd leaf
Experimental: Corn plants were grown in nutrient solutions deficient in iron, or supplementing either Fe-EDTA (positive control) or Fe-gramibactin. Solvent and metal-free chelators were used as negative controls. As readout for iron uptake we measured the chlorophyll content of youngest leaves, since chlorophyll biosynthesis is strongly dependent on iron availability (11).
Seeds from maize (Zea mays L. ssp. saccharata) were commercially acquired (Kiepenkerl) and surface sterilized in 4.5% (v/v) sodium hypochlorite for 10 minutes and subsequently rinsed 5 times with 50 mL sterile distilled water. Seeds were germinated in rolled filter papers soaked with sat. CaSO4 solution for 3 d in at 30° C. in the dark. […]
Plants were grown hydroponically for 21 days using the above described adjusted nutrient solution. […] The last developed leaf of each plant (3rd leaf) was removed, and fresh weight was determined. […] The residue was dissolved in 1 mL methanol and 1:10 or 1:20 dilutions with methanol were analysed spectrophotometrically using a Shimadzu UV-1800 spectrophotometer. Samples were measured at 25° C. using discardable plastic cuvettes (d=1 cm). […] Chlorophyll contents were calculated using the equations developed by Wellburn.

[2] = Potentiometric and spectrophotometric titrations of the gramibactin/Fe3+ system with EDTA as competitive chelating agent; format: physicochemical; conditions: I=0.1 M KCl
Description: (§1) To evaluate the actual strength of the siderophore, we conducted potentiometric and spectrophotometric titrations to evaluate the acid/base behavior of gramibactin and to determine the complex formation constant of the iron complex (FIG. 2C). […] It thus appeared conceivable that the rhizosphere bacteria excrete the metal chelator to provide the host plant with iron.
(§2) Potentiometric ligand competition measurements and calculations have been performed as reported (11) at l=0.1 M in KCl(aq) and at T=25.0±0.1° C., using a Mettler Toledo DL50 apparatus, equipped with a Schott Instruments N6180 combined glass electrode, controlled by LabX light v1.05 software. The titrand solutions consisted in gramibactin (from 0.7 mm to 1 mm), EDTA (as disodium salt) and Fe^3+ (as FeCl3) in different gramibactin:Fe^3+:EDTA ratios, with slight known excess of HCl.
(§3) This can be explained by a buffering effect of the two N-nitroso-hydroxylamine moieties. […]
(§4) Titrations were carried out at 0.1 m in KCl(aq) and T=25.0±0.1° C. in a glass cuvette (d=10.00 mm) placed in the spectrometer equipped with a thermostated cell holder. The pH was read out by using a inoLab pH 7110 with a combination electrode (SI analytics, ScienceLine Type N 6000 A). […] UV/Vis-spectra were recorded after every addition of KOH(aq) followed by magnetic stirring (FIG. 12).

[3] = Acid/base titration and speciation of gramibactin; format: physicochemical; conditions: physiological pH; I=0.1 M KCl; 25 °C
Description: as §1, §2, §3, §4

[4] = test system: extracted proteins from corn roots; experiment: In vitro NO release assay with 2,3-diaminonaphthalene probe; format: biochemical, Zea mays L. ssp. saccharata; conditions: 2 mM test substance, 1.2 mM H2O2, 0.2 mM DAN, root proteins, 20 min, pH 6
Experimental: To probe the proposed enzymatic NO release in vitro, we extracted soluble proteins from ground root tissue of hydroponically grown plants into phosphate buffer. To monitor the liberation of NO in the in vitro enzyme assay, we used 2,3-diaminonaphthalene (DAN) as a reporter. Nitric oxide reacts with this chemical probe to form the 2,3-napthotriazole, and its strong fluorescence can be readily measured using a microplate reader. Extracted root proteins were incubated with the probe, hydrogen peroxide and either Fe-gramibactin or the iron-free ligand, using heat-inactivated proteins as negative control. […] Thus, gramibactin represents a novel NO donor.
One-week-old plants were harvested and the roots were rinsed with distilled water. After separating the roots from the shoot, the root tissue was frozen using liquid nitrogen and grounded with mortar and pestle. The plant material was then extracted using 1 mL 66 mm NaH2PO4 buffer (pH 6). The extract was centrifuged to remove remaining plant material, and 20 μL of the supernatant were used for in vitro assays. […] Fluorescence was measured using a Varioskan LUX (Thermo Scientific) microplate reader (IEx.=375 nm, IEm.=415 nm). Fluorescence values were normalized to the sample with the highest fluorescence. Every assay was performed in triplicates and every replicate was measured three times, and the mean of all these replicates was plotted. […]

[5] = test system: corn roots; experiment: In planta NO release assay with DAF-2DA, fluorescence microscopy; format: in vivo, Zea mays L. ssp. saccharata; conditions: 100 μM; 1.5-2 h after loading with 10 μM DAF-2DA
Experimental: To verify the postulated NO release in planta we treated fresh corn seedlings with diaminofluoresceine-2-diacetate (DAF-2DA), a cell-permeable probe that captures NO with formation of a highly fluorescent triazole. After loading maize roots with the chemical probe they were incubated with negative controls, gramibactin, or Fe-gramibactin, then cut and inspected by fluorescence microscopy. […] Thus, NO is in fact liberated from gramibactin in the plant tissue. A weak signal was also detectable in the root treated with the Fe-gramibactin complex. This finding is important as it confirms that iron is removed from gramibactin in vivo, thus providing free ligands that can subsequently release nitric oxide. Finally, fluorescence microscopy also allowed localizing NO, which is apparently released into the intracellular space. This observation is plausible as peroxidases, which are required for NO release, are typically located in the cell membrane.
Young seedlings (2-3 days old) were placed in a vial containing 4 mL standard nutrient solution (see above) with 10 μm 4,5-diaminofluorescein diacetate and incubated at room temperature for 30 min. Seedlings were then removed, and the root was rinsed with deionized water before placing them in nutrient solution containing 100 μm gramibactin, 100 μm Fe-gramibactin or no additive (control). […]

log □ (complex formation constant of the iron complex) ([2]; disodium EDTA as competitive chelating agent, T=25.0±0.1 °C)	protons released upon metal complexation ([2]; potentiometric titration, gramibactin:Fe3+ 1:1, 25 °C)	Compound	higher total chlorophyll content versus iron-free cultured plants [1] [%]	protonation state of graminine residues (speciation diagram) [3]	fluorescence of 2,3-naphthotriazole (NO release) [4]	DAF-2T fluorescence signal in root cross sections (NO release in planta) [5]
		O=C([O-])CN(CCN(CC(=O)[O-])CC(=O)[O-])CC(=O)[O-].[Fe+3] [Fe-EDTA]	50			
27.6±0.1	four	CCCCCCCC(=O)N[C@@H](C(=O)N[C@@H]1C(=O)N[C@H]([C@@H](C)O)C(=O)N[C@H](CCCN(O)N=O)C(=O)NCC(=O)N[C@H](CCCN(O)N=O)C(=O)O[C@@H]1C)[C@@H](O)C(=O)O [gramibactin] (Octanoyl-[dAsp(3R-OH)]T[d(aThr)][X1]G[X1]; ester 2-C)		both graminine residues are deprotonated at physiological pH	drastically increased fluorescence; also recorded: liberates NO	strong signal; also recorded: liberates NO
